Patent publication US9296785B2, “IL-13 receptor binding peptides” (Wake Forest University Health Sciences, priority 2009, dated 2016)

Experiments:
U-87 MG GBM cells = assay: Morphology of U-87 MG GBM cells after treatment; assay type: cell-based; settings: over-expressor of IL-13Rα2, 1 to 20 μM or equimolar concentrations
Excerpt: (§1) We have designed double-specificity therapeutic delivery systems, which not only specifically recognize cancer cells, but also enable intracellular distribution of anti-cancer agents to their respective sites of action, like the cytosol, mitochondria and/or nucleus. Some cationic peptides lyse negatively charged mitochondrial membranes of a eukaryotic cell, leading to initiation of caspase-3 dependent cell death. We have chosen one such peptide, (KLAKLAK)2 [SEQ ID NO:1, KK] to target the mitochondria of glioblastoma multiforme (GBM) brain tumor cells. To target GBM cells, we exploited interleukin 13 receptor alpha 2 (IL-13Rα2), an IL-13 plasma membrane receptor which is over-expressed in 75% of GBM patients. To enable intracytosolic delivery of the KK peptide mediated first by the IL-13Rα2, we use Pseudomonas exotoxin A (PE) domain II [D2] based delivery vector. D2 of PE is responsible for the processing and translocation of the internalized toxin and any other protein/agent fused to its C-terminal end from the endosome to the cytosol. Thus, we have generated single chain fusion proteins composed of IL-13, D2 and KK: IL-13.D2 and IL-13.D2.KK, respectively. These proteins were expressed in BL21 (λDE3) E. coli under the bacteriophage T7 promoter control and were further processed and purified by the FPLC system to >95% purity. […]

U-251 MG GBM cells = assay: Morphology of U-251 MG GBM cells after treatment; assay type: cell-based; settings: over-expressor of IL-13Rα2, 1 to 20 μM or equimolar concentrations
Excerpt: as §1

(KLAKLAK)2 (KLAKLAKKLAKLAK; Amphipathic antimicrobial peptide sequence) [KK peptide]
effect on cell morphology (U-87 MG GBM cells): did not have any measurable effect
effect on cell morphology (U-251 MG GBM cells): did not have any measurable effect
